Results on eleven compounds are retold here after publication PMC12775434, “Ultra-large virtual screening unveils potent agonists of the neuromodulatory orphan receptor GPR139” (Nature Communications, 2025).

Values joined by “and” are separate entries in the source; they are usually repeats but may differ in a detail not shown here. Equal entries are not always repeated.

The first test concerns the target T1, human muscarinic acetylcholine M1 receptor (M1R) (Homo sapiens, UniProt P11229).
T1 sequence (P11229 1-460): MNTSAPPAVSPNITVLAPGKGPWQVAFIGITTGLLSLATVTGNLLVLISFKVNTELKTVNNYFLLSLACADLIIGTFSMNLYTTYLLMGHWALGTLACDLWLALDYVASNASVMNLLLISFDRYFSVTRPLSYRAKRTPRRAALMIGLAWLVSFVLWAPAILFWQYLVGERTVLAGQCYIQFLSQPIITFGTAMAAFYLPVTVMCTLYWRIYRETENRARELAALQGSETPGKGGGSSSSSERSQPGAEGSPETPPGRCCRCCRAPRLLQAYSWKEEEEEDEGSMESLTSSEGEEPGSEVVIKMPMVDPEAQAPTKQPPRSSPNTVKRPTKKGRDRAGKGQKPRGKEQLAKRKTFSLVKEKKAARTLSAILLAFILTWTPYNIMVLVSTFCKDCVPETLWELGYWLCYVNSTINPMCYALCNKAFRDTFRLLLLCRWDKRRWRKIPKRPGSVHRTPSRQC
As to the kind of experiment: Ca2+ mobilization counter-screen in M1R-CHOk1 cells. In kind it is cell-based. The following applies: 10 µM; individual replicates (Supplementary Figure 2). The essentials:
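Fluorescence (ex 485 nm, em 525 nm) recorded at 37 °C after automated compound addition to CHO-K1 cells stably expressing M1R. Cells were dye-loaded with 2 µM Fluo-4 AM for 1 h at 37 °C, with 2.5 mM probenecid present; final DMSO at most 0.3%.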
With `COc1cc(OC)cc(C(=O)NNC(=O)Nc2cccc3ccccc23)c1` [Lundbeck Cmp 1a, reference compound], the “Ca2+ signal (% of Carbachol)” value was -13 % of Carbachol and 8 % of Carbachol.

The same test, now with this note: 10 µM; individual replicates (Supplementary Figure 5).
For the compound `COc1cc(OC)cc(C(=O)NNC(=O)Nc2cccc3ccccc23)c1` [Lundbeck Cmp 1a, reference compound], the “Ca2+ signal (% of Carbachol)” value was -0.591 % of Carbachol and 1.3 % of Carbachol and 0.449 % of Carbachol.

Staying with this test, now noted: individual replicates (Supplementary Figure 2).
`Cc1noc(CNC(=O)C2(C)CCCCN2C(=O)c2ccccc2)n1` (stereo not drawn) [Compound 4, CC1=NOC(CNC(=O)C2(C)CCCCN2C(=O)C=3C=CC=CC3)=N1]: the “Ca2+ signal (% of Carbachol)” value is -17 % of Carbachol and -15 % of Carbachol. As for `CC(NC(=O)Cn1cncc(-c2ccccc2)c1=O)c1ccccc1` (stereo not drawn) [Compound 5, C[C@@H](NC(=O)CN1C=NC=C(C=2C=CC=CC2)C1=O)C=3C=CC=CC3], the “Ca2+ signal (% of Carbachol)” value was -15 % of Carbachol and -5 % of Carbachol. On to `Cc1cc(-c2nc(CC(=O)NC(C)c3ccccc3)no2)sc1C` (stereo not drawn) [Compound 1, CC(NC(=O)CC1=NOC(=N1)C2=CC(C)=C(C)S2)C=3C=CC=CC3], for which the “Ca2+ signal (% of Carbachol)” value is -12 % of Carbachol and -15 % of Carbachol. Still for that read-out and setting: with `COC(=O)c1cc(NC(=O)NC(C)c2cccc(F)c2F)ccc1C` (stereo not drawn) [Compound 2, COC(=O)C=1C=C(NC(=O)NC(C)C=2C=CC=C(F)C2F)C=CC1C] the figure was -10 % of Carbachol and 1.81 % of Carbachol; with `Cc1noc(C(C)NC(=O)Nc2cccc(-c3ccccc3)c2)n1` (stereo not drawn) [Compound 3, CC(NC(=O)NC=1C=CC=C(C1)C=2C=CC=CC2)C3=NC(C)=NO3], -13 % of Carbachol and -10 % of Carbachol.

The test is the same for the next values; noted with them: individual replicates (Supplementary Figure 5).
Regarding `COc1ccccc1-c1nc(CC(=O)NC(C)c2ccccc2)no1` (stereo not drawn) [Compound 1.2, COC1=C(C2=NC(CC(NC(C3=CC=CC=C3)C)=O)=NO2)C=CC=C1], the “Ca2+ signal (% of Carbachol)” value was -21 % of Carbachol and 0.491 % of Carbachol and -3.3 % of Carbachol. In the case of `Cc1cc(-c2nc(CC(=O)NC(C)c3ccccc3)no2)n(C)n1` (stereo not drawn) [Compound 1.16, CC(C1=CC=CC=C1)NC(CC2=NOC(C3=CC(C)=NN3C)=N2)=O], the “Ca2+ signal (% of Carbachol)” value was -2 % of Carbachol and 14 % of Carbachol and 5 % of Carbachol.

As to `COc1cc(-c2nc(CC(=O)NC(C)c3ccccc3)no2)ccn1` (stereo not drawn) [Compound 1.7, COC1=NC=CC(C2=NC(CC(NC(C3=CC=CC=C3)C)=O)=NO2)=C1], the “Ca2+ signal (% of Carbachol)” value is -3 % of Carbachol and 5.61 % of Carbachol and 2.51 % of Carbachol. For `Cc1cscc1-c1nc(CC(=O)NC(C)c2ccccc2)no1` (stereo not drawn) [Compound 1.1, CC(C1=CC=CC=C1)NC(CC2=NOC(C3=CSC=C3C)=N2)=O], the “Ca2+ signal (% of Carbachol)” value is -5 % of Carbachol and -11 % of Carbachol. In the case of `Cc1nocc1-c1nc(CC(=O)NC(C)c2ccccc2)no1` (stereo not drawn) [Compound 1.5, CC(C1=CC=CC=C1)NC(CC2=NOC(C3=CON=C3C)=N2)=O], the “Ca2+ signal (% of Carbachol)” value is 5 % of Carbachol and 6 % of Carbachol and 8 % of Carbachol.
